Experimental data as given in US20120116069A1, “GLUCOSE METABOLISM-IMPROVING AGENT AND GLUCOSE METABOLISM-IMPROVING COMPOSITION” (LION CORPORATION, priority 2009, published 2012).
Marks after values point to notes of the source that are not given here.

Test system: cells derived from rat skeletal muscle (L6 cells)
Assay: Intake of RI-labeled 2-deoxyglucose into differentiated L6 cells
Assay type: cell-based
Conditions: n=4
Experimental: Cells derived from rat skeletal muscle (L6 cells, product of Dainippon Pharmaceutical Co., Ltd.) were suspended in 15 mL of DMEM (Dulbecco's modified Eagle medium, product of SIGMA Co.) containing 10% by mass FBS (fetal bovine serum, product of GIBCO Co.) and 1% by mass AB (anti-biotic solution, product of SIGMA Co.). The resultant suspension was dispensed into 75-cm^2 culture flasks and then statically cultured at 37° C. under 5% CO2. After having reached subconfluency (80%), each culture was placed in a 24-well plate (product of SUMITOMO BAKELITE CO., LTD.) at 50,000 cells/well. After having reached confluency, the cells were cultured for three days. Then, the medium was exchanged with MEM (minimal essential medium, product of NACALAI TESQUE, INC.) containing 2% by mass FBS and 1% by mass AB to thereby induce differentiation of the L6 cells. Eight days after the induction of differentiation, a solution of panaxatriol (PT) (product of LKT Laboratories, Inc.) in ethanol was added to the resultant medium so that the concentration of panaxatriol (PT) was 1 ppm or 10 ppm. The PT-free well was used as a control for each of these wells. Then, 30 hours after, the medium of each well was exchanged with MEM containing 2% by mass BSA (bovine serum albumin, product of SIGMA Co.) and panaxatriol (PT) at a concentration of 1 ppm or 10 ppm, to thereby terminate sensitization. Furthermore, 18 hours after, the MEM containing 2% by mass BSA was removed, and a KRH buffer (50 mM HEPES (product of SIGMA Co.), pH 7.4, 137 mM sodium chloride (product of Wako Pure Chemical Industries, Ltd.), 4.8 mM potassium chloride (product of Wako Pure Chemical Industries, Ltd.), 1.85 mM calcium chloride (product of Wako Pure Chemical Industries, Ltd.) and 1.3 mM magnesium sulfate (product of Wako Pure Chemical Industries, Ltd.)) was added to the wells at 30 μL/well. Thereafter, 6 μL of RI-labeled 2-deoxyglucose (2-DG, product of American Radiolabeled Chemicals Co.) (final concentration: 6.5 mM (0.5·Ci)) was added to the wells to perform reaction. Five minutes after the initiation of reaction, the cells were washed four times with an ice-cooled KRH buffer to remove 2-DG that had not been taken into the L6 cells. After removal of the KRH buffer, the cells were lysed with 250 μL of 0.05N sodium hydroxide (product of Wako Pure Chemical Industries, Ltd.) and recovered in a vial. In addition, the wells were washed twice with 200 μL of the KRH buffer and recovered in the vial similarly. Then, 3 mL of liquid scintillation cocktail PICOFLOUR (product of PerkinElmer Co., Ltd.) was added to the vial containing the cells recovered, followed by measuring for radioactivity with a liquid scintillation counter (LSC-5100, product of Aloka Co.). […]

CC1(C)CCC[C@](C)([C@H]2CC[C@]3(C)[C@@H]2[C@H](O)C[C@@H]2[C@@]4(C)CC[C@H](O)C(C)(C)[C@@H]4CC[C@]23C)O1 [PD, panaxadiol]
Relative activity (radioactivity of 2-DG taken in, compound-free well = 100) (1 ppm): 130* | Relative activity (radioactivity of 2-DG taken in, compound-free well = 100) (10 ppm): 140**

CC1(C)CCC[C@](C)([C@H]2CC[C@]3(C)[C@@H]2[C@H](O)C[C@@H]2[C@@]4(C)CC[C@H](O)C(C)(C)[C@@H]4[C@@H](O)C[C@]23C)O1 [PT, panaxatriol]
Relative activity (radioactivity of 2-DG taken in, compound-free well = 100) (1 ppm): 132* | Relative activity (radioactivity of 2-DG taken in, compound-free well = 100) (10 ppm): 145**
